Patent US5015470A, “Cosmetic composition” (priority 1986, dated 1991)
Like-named read-outs stand apart in the source and are kept apart here. Each block holds one molecule with its values, some of them ahead of it.

Experiments:
[1] = tested on: hair growth (clipped patch of skin, upper back of male rats); test: Measurement of hair growth using the rat model (cumulative clipped hair weight, topical application); format: in vivo
Description: The effect of compounds on hair growth was assessed using male rats as an animal model as follows. In each of the comparisons reported below, 10 rats were used.
A small patch of normal skin (4cm ×4cm) on the upper back of each rat was clipped at the start of the experiment and a hair growth stimulant composition (or a control) applied twice daily topically to the clipped area. Hair was clipped from the area of the patch twice weekly, collected and weighed at each time point, and cumulative hair weight calculated. […] A positive response, ie. an increase of at least 10% by weight of hair, compared with a control, indicates the potential of the test substance to prevent hair loss and/or reverse baldness in human subjects.
In this example, the effect of topical application of D-glucaro-1,4-lactone, an inhibitor of β-glucuronidaseis shown. The test solution in this experiment contained approximately 7% (w/v) of the glucarolactone in the form of an equilibrium mixture prepared from boiled calcium glucarate. The vehicle was 33% (v/v) ethanol containing 50mM Na citrate at pH 4.2. Test or control solutions (0.3ml) were applied twice-daily to the clipped site; the hair growth results are shown below in Table 2.
This effect is illustrated in Table 3 below, in which the vehicle was 33% v/v ethanol in 50mM sodium citrate, pH4.2:
In a further experiment, glucarolactone was tested in the presence of an activity enhancer, 1-methylpyrrolidone. Again, a significant increase in hair weight was obtained, as shown below in Table 4, in which the vehicle was 33% v/v aqueous ethanol containing 50mM Na citrate buffer pH4.2 and 10% w/v 1-methylpyrrolidone. […]

[2] = tested on: hair growth (skin of shaved rabbits); conditions: repeated injection into skin of shaved rabbits; cited from earlier work
β-glucuronidase [3] = target: T1, β-glucuronidase (Homo sapiens, UniProt P08236); test: Inhibition of β-glucuronidase activity (nitrophenyl glucuronide substrate, method of Dingle); format: biochemical; conditions: for inhibition of γ-glucuronidase activity (so in the source), in words: statement referring to experiments described later
T1 sequence (P08236 23-651): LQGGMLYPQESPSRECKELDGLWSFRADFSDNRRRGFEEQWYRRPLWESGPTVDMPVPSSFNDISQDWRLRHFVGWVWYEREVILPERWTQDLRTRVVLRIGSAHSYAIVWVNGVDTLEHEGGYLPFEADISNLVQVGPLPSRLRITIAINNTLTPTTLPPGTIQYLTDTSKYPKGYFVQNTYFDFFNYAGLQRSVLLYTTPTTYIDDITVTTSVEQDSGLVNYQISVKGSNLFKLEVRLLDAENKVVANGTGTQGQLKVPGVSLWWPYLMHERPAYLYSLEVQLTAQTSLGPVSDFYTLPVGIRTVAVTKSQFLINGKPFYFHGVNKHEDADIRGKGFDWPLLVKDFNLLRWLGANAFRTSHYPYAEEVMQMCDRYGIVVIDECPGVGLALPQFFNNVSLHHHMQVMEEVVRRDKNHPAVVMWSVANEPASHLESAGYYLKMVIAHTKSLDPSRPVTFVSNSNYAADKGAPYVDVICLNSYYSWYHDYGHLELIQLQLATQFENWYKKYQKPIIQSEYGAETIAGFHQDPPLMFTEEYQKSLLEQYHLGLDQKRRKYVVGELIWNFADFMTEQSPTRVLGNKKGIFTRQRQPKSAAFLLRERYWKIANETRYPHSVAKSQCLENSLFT
Description: In each of the assays referred to herein, the chemical inhibitor was tested at a pH close to the optimum pH value of the relevant enzyme, and under conditions of saturating substrate concentration, to ensure that Vmax was obtained in the controls. […] The activity of each of these four exoglycosidases was measured using a method described in "Lysosomes, A Laboratory Handbook", edited by […]., Second Edition, (1977) at page 118. […] [Ibid., page 118] as described herein. […] [Ibid., page 118]. The results when the acid or the lactone were incubated with a mixture of this enzyme and the nitrophenyl glucuronide substrate were as follow: […]

[4] = cited from earlier work
β-glucuronidase [5] = target: T1, β-glucuronidase; conditions: Levvy and Snaith (1972); cited from earlier work
α-glucuronidase = conditions: Levvy and Snaith (1972); cited from earlier work
hair growth = conditions: 1% solution, daily application for six months; cited from earlier work
[6] = Table 3, 7% glucarolactone, 0.2% minoxidil, or both, 45 days
[7] = Table 3, 7% glucarolactone, 0.2% minoxidil, or both, vehicle 33% v/v ethanol in 50mM sodium citrate, pH4.2, vehicle control 427.2 ± 58.7
[8] = read-out: percentage inhibition of a 1mM concentration, 1 mM, worked out from 1.03 or 1.14 mM

Molecule: O=C(O)[C@@H](O)[C@H]1OC(=O)[C@H](O)[C@H]1O [glucarolactone, D-glucaro-1,4-lactone]
stimulation of hair growth (increase) ([1]; 7% glucarolactone vs vehicle, Table 2): 13%
increase in hair growth ([1]; 7% glucarolactone with 0.1% w/v Triton X-100, 43 days (Table 5)): 39%
increase in hair growth ([1]; 7% glucarolactone with 10% w/v 1-methylpyrrolidone, 46 days (Table 4)): 15%
Mean Cumulative hair weight (mg) ± sd, after 45 days ([1]; Table 2, approx. 7% (w/v), 0.3 ml twice daily, vehicle 33% (v/v) ethanol, 50mM Na citrate pH 4.2, vehicle control 427.2 ± 58.7): 482.7 ± 58.4 mg
Increase in hair growth (%) (Test vs control) [1, 6]: 13%
Mean Cumulative hair weight (mg) ± sd, after 45 days [1, 7]: 482.7 ± 58.4 mg
Mean Cumulative Hair Weight (mg) ± sd, after 46 days ([1]; Table 4, 7%, vehicle 33% v/v aqueous ethanol, 50mM Na citrate pH4.2, 10% w/v 1-methylpyrrolidone, vehicle control 611.1 ± 48.1): 706.2 ± 86.6 mg
Mean Cumulative Hair Weight (mg) ± sd, after 43 days ([1]; Table 5, 7%, vehicle 20% v/v ethanol, 50mM sodium citrate pH4.2, 0.1% w/v Triton X-100, vehicle control 412.3 ± 57.5): 573.3 ± 82.5 mg
effect on hair growth in combination with a low concentration of minoxidil ([1]; result in words): synergistic effect on hair growth in combination with a low concentration of minoxidil
effect on onset of anagen / hair cycle ([1]; result in words): consistently found to advance the onset of anagen, thus reducing the amount of time spent in the resting stage of hair cycle

Molecule: dermatan sulphate
initiation of the hair growth cycle with stimulation of hair growth, in words [2]: also active in this respect, but to a lesser extent

Molecule: chondroitin-6-sulphate
initiation of the hair growth cycle with stimulation of hair growth, in words [2]: also active in this respect, but to a lesser extent

Molecule: heparan sulphate
initiation of the hair growth cycle with stimulation of hair growth, in words [2]: particularly active

Molecule: zinc gluconate
increase in hair growth ([1]; 2% (w/v) zinc gluconate, 45 days (Table 6)): 16%
Mean Cumulative hair weight (mg) ± sd, after 45 days ([1]; Table 6, 2% (w/v), vehicle 20% aqueous ethanol, vehicle control 397.8 ± 56.3): 460.9 ± 45.7 mg

inhibition at 200 µg/mL (β-glucuronidase [3]; 0.2 mg/ml (1.14 mM)): 51%
enzyme inhibition in words (weak inhibitor) (β-glucuronidase [3]; 1 mM, β-glucuronidase): weak enzyme inhibitors
inhibition at 1000 µM (β-glucuronidase [3]; [8]): 44.7%
inhibition of γ-glucuronidase activity (so in the source), in words (β-glucuronidase [3]): weak inhibitors
Molecule: O=C[C@H](O)[C@H]1OC(=O)[C@@H](O)[C@H]1O [glucurono-6,3-lactone, D-Glucurono-6,3-lactone]

Molecule: Nc1cc(N2CCCCC2)nc(N)[n+]1[O-] [minoxidil, reference compound]
increase in hair growth ([1]; 2% (w/v) minoxidil vs vehicle, 45 days): 55%
Mean Cumulative hair weight (mg) ± sd, after 45 days ([1]; Table 1, 2% (w/v) topical twice daily, vehicle 70% ethanol, 20% water, 10% propylene glycol, vehicle control 387.3 ± 75.9): 599.2 ± 85.1 mg
Increase in hair growth (%) (Test vs control) [1, 6]: 9%
Mean Cumulative hair weight (mg) ± sd, after 45 days [1, 7]: 465.8 ± 48.8 mg
inhibition at 50 µg/mL (β-glucuronidase [3]; 0.05 mg/ml (0.24 mM)): 2%
inhibition at 400 µg/mL (β-glucuronidase [3]; 0.4 mg/ml (1.9 mM)): 12%
inhibition at 800 µg/mL (β-glucuronidase [3]; 0.8 mg/ml (3.8 mM)): 23%
enzyme inhibition in words (weak inhibitor) (β-glucuronidase [3]; 1 mM, β-glucuronidase): weak enzyme inhibitor
inhibition at 1000 µM (β-glucuronidase [3]; 1 mM, β-glucuronidase, read-out: enzyme inhibition in words (weak inhibitor)): 5 to 50%
inhibition at 1000 µM (β-glucuronidase [3]; read-out: percent inhibition of a 1mM concentration): 6%
side effects of orally administered minoxidil ([4]; oral): fluid retention, tachycardia, dyspnea, gynecomastia, fatigue, nausea and cardiotoxicity
side effects following topical application ([4]; topical): certain side effects have been experienced following topical application of minoxidil

inhibition at 200 µg/mL (β-glucuronidase [3]; 0.2 mg/ml (1.03 mM)): 20%
enzyme inhibition in words (weak inhibitor) (β-glucuronidase [3]; 1 mM, β-glucuronidase): weak enzyme inhibitors
inhibition at 1000 µM (β-glucuronidase [3]; [8]): 19.4%
inhibition of γ-glucuronidase activity (so in the source), in words (β-glucuronidase [3]): weak inhibitors
Molecule: O=C[C@H](O)[C@@H](O)[C@H](O)[C@H](O)C(=O)O [glucuronic acid, D-glucuronic acid]
inhibition of β-glucuronidase, in words (β-glucuronidase [5]): feebly inhibited
inhibition of α-glucuronidase, in words (α-glucuronidase): feebly inhibited
regrowth of hair, in words (hair growth): regrowth of hair
